Test results: patent US9526721B2, “Tetrahydroprotoberbine compounds and uses thereof in the treatment of neurological, psychiatric and neurodegenerative diseases” (priority 2012, dated 2016)
pKi: −log10 of the molar value. “Also recorded” adds a separate entry of the source.

Legend:
rats [1] = assay: Catalepsy (bar test); assay type: in vivo, rat; conditions: SC; for catalepsy (immobilized contact time): across doses tested
Experimental: Testing occurred in a plexiglas box (28 cm×45 cm×20 cm) containing a horizontal steel bar located 8 cm above floor level. […] After injection animals were returned to the test box and catalepsy testing occurred at 1, 15, 30, and 45 minutes after injection. Testing at each time point lasted 2 min after the forepaws of each rat was placed on the bar. Behavior was recorded with a video camera (Cohu, Poway, Calif.) and scored off-line. The cumulative time spent immobilized with both forelimbs on the horizontal bar was scored for each 2 min test epoch. Videos selected at random were scored independently by a second observer and a high inter-rater reliability was observed (R^2=0.93, F=393.4, p<0.05).
Catalepsy testing was conducted as described in Example 12.

5HT4 = target: T1, 5HT4 (Homo sapiens, UniProt Q13639); assay: Receptor binding, 5HT4
T1 construct: host or cells: CHO cells
Experimental: (§1) All receptors tested were heterologously expressed CHO cells and IC50 values were determined by a non-linear, least squares regression analysis using MathIQ (ID Business Solution Ltd, UK). Ki was calculated using the equation of Cheng and Prusoff (1973, Biochem. Pharmacol 22:23099-3108) derived from the observed IC50 of the tested compound, the concentration of radioligand employed in the assay, and the historical values for the Kd of the ligand (obtained experimentally at MDS Pharma Services).

D5 = target: T2, D5 (Homo sapiens, UniProt P21918); assay: Receptor binding, dopamine D5; conditions: receptor expressed in CHO cells
T2 construct: host or cells: CHO cells
Experimental: All receptors tested were heterologously expressed CHO cells and IC50 values were determined by a non-linear, least squares regression analysis using MathIQ (ID Business Solution Ltd, UK).
All receptors were heterologously expressed CHO cells and IC50 values were determined by a non-linear, least squares regression analysis using MathIQ (ID Business Solution Ltd, UK).

5HT2C = target: T3, 5HT2C (Homo sapiens, UniProt P28335); assay: Receptor binding, 5HT2C; conditions: receptor expressed in CHO cells
T3 construct: host or cells: CHO cells
T3 sequence (P28335 33-458): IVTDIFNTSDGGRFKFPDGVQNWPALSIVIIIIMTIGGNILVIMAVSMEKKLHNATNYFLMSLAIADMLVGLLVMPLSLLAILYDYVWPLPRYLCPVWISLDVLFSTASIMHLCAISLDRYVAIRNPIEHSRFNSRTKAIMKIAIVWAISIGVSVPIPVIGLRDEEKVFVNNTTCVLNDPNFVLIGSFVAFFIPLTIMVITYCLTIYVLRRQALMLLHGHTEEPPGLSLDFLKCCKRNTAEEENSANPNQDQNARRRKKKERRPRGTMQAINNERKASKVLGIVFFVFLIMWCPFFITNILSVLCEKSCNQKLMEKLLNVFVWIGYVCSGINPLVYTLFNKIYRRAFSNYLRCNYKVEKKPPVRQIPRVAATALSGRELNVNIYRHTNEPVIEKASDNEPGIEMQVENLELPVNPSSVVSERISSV
Experimental: as §1
as §1, with “receptors” for “receptors tested”, “UK). K1” for “UK). Ki”, “calculated (Y.” for “calculated using the equation of”, “Cheng &” for “Cheng and”, “Prusoff 1973)” for “Prusoff (1973, Biochem. Pharmacol 22:23099-3108) derived”

rats [2] = assay: Latent inhibition; assay type: in vivo, rat; conditions: treatment before each pre-exposure; 1.0 mg/kg d-AMPH before conditioning
Experimental: Sensitization: Animals were removed from the colony and taken to a holding room where they received either IP d-AMPH or saline every Monday, Wednesday, and Friday. Doses started at 1 mg/kg and increased 1 mg/kg each week over 5 weeks to 5 mg/kg. 25 days after the induction phase, behavioral sensitization was assessed over 3 days in locomotor chambers (plexiglass box, 40 cm×40 cm×40 cm) where speed and distance traveled were recorded using Noldus Ethovision XT (Noldus, Leesburg, Va.). The first day consisted of a 2 hr acclimation session, and prior to counter balanced injections of either 0.5 mg/kg d-AMPH or saline on days 2 and 3 animals were acclimated for 1 hr. Experiments were run in two separate cohorts of 30 animals to minimize the time between testing sensitization and LI.
Latent Inhibition: LI tests were performed in rats treated with 1.0 mg/kg acute d-AMPH, sensitized rats, and drug-naive rats. LI testing began 5 days post-challenge of the escalating dose regime. Animals in both conditions (chronic saline or sensitized) were randomly assigned to either non-pre-exposed (NPE) or pre-exposed (PE) groups. Testing took place over 3 consecutive days. […] Animals in the PE group received 50 presentations of the CS (10 sec duration) per day at a variable interval for the first two days. Animals in the NPE group were placed in the chamber for an equal time as the PE animals. Conditioning (COND) consisted of 100 CS-US pairings. Latency to cross into the other compartment and the number of total beam breaks were recorded. Drug-naïve animals receiving acute 1.0 mg/kg AMPH were injected IP 45 min before the COND trial.
The effects of the two individual enantiomers of govadine on latent inhibition (LI) were also tested as described in Example 12.

rats [3] = assay: Microdialysis of prefrontal cortex and nucleus accumbens; conditions: for 5-HIAA in NAc / DOPAC in NAc / HVA in NAc / dopamine level in NAc / 5-HIAA in PFC / DOPAC in PFC / HVA in PFC / dopamine level in PFC: microdialysis; for 5-HIAA in NAc / DOPAC in NAc / HVA in NAc / dopamine level in NAc: nucleus accumbens; for 5-HIAA in PFC / DOPAC in PFC / HVA in PFC / dopamine level in PFC: prefrontal cortex;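 for all read-outs here: dialysate collected every 10 min from freely moving rats, analysed by HPLC with electrochemical detection, after four stable baseline samples (under 10% variation) preceding drug dosing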
Experimental: Rats received subcutaneous injections of an analgesic (ketoprofen 0.05 mL or buprenorphine, 0.1 mL) and sterile saline (0.9% NaCl, ˜3 mL). Once shaved and cleaned, the heads were secured in the stereotaxic frame in flat skull position for bilateral implantation of stainless steel microdialysis guide cannulae (19 gauge×15 mm) in the nucleus accumbens (NAc) (from bregma +1.7 mm anterior and ±1.1 mm medial; from dura −1.0 mm ventral) or medial prefrontal cortex (mPFC) (+3.0 mm anterior, ±0.6 mm medial; −1.0 mm ventral). […] Rats were allowed to rest with heat support until they regained consciousness, and then given a one-week recovery period.
Microdialysis probes were assembled 1-2 days prior to microdialysis experiments. Probes were concentric in design, constructed from Filtral 12 AN69HF semi-permeable hollow fibres (2 mm length, 340 μm OD×4 mm, 65 kDalton molecular weight cut-off; Hospal, Neurnberg, Germany) and silica inlet-outlet lines (75/150 um ID/OD).
The day prior to microdialysis experiments, probes were connected to an Instech dual-channel liquid swivel (Plymouth Meeting, Pa.) and flushed with artificial cerebrospinal fluid (aCSF). […] Following DA recovery tests, probes were implanted via the guide cannulae (dialysis membrane spanned −4.8 to −6.8 mm ventrally for NAc; −1.6 to −3.6 mm for mPFC). Rats remained in the testing chamber overnight (14-16 hr) with aCSF perfusing continuously through the probes at 1 μL/min In the morning, microdialysis samples were collected at 10 min intervals and assayed for DA, DOPAC, homovanillic acid (HVA) and 5-HIAA content. Once baseline levels were determined to be stable for four consecutive samples (less than 10% fluctuation), the drug treatment phase of each experiment was initiated.
Microdialysis samples were analyzed immediately after collection using high pressure liquid chromatography (HPLC) with electrochemical detection. […] The mobile phase [70 mM sodium acetate buffer, 40 mg/L EDTA and 50 mg/L of sodium dodecyl sulfate (adjustable), pH 4.0, 10% methanol] flowed through the system at 0.17 mL/min EZChrome Elite software (Scientific Software, Pleasanton, Calif.) was used to acquire and analyze chromatographic data.
After the experiments, rats were deeply anesthetized, brains were removed and stored in 20% w/v sucrose and 4% v/v paraformaldehyde. Brains were sliced into 50 um coronal sections, stained with cresyl violet and examined for probe placement.
Microdialysis probes (2 mm active membrane) were implanted in the NAc and mPFC ˜16 hrs prior to start of the experiment and continuously perfused aCSF.

[4] = tested on: midbrain dopamine (DA) neurons; assay: Firing of midbrain dopamine neurons in slices (cell-attached recording); assay type: cell-based, Sprague Dawley rats; conditions: co-application with Quinpirole (500 nM)
Experimental: Horizontal midbrain slices (220 μm) were prepared from male Sprague Dawley rats (3-4 weeks old). Cell-attached voltage-clamp recordings were used to examine tonic firing rate of DA neurons at 31-32° C. using patch pipette and bathing solutions consisting of physiological saline. Putative DA neurons were identified by spontaneous pacemaker firing (1-3 Hz) with broad APs (≧2.0 ms). Identified cells not responsive to Quinpirole (500 nM), a D2 DA receptor agonist, were excluded from further recording. Cells were also filled with biocytin or Alexa for posthoc-identification using TH immunostaining.

rats [5] = assay: Conditioned avoidance responding (CAR); conditions: SC, 100 CS-US pairings
Experimental: Conditioned avoidance responding (CAR) was performed in a two-way avoidance procedure with drug naive rats in four shuttle boxes (Med Associates, Vt., USA) each consisting of two compartments separated by an open door. Each compartment contained a wall-mounted speaker, house light and 5 photocells to detect the location of the animal. All experimental protocols and data acquisition were controlled by custom programs written in MED-PC.
Before training, each animal received two acclimation sessions lasting 30 min with only the house light illuminated. […] Pairings of the conditioned stimulus (CS) (white noise, ˜60 dB) and the unconditioned stimulus (US) (footshock, 0.75 mA) were presented at random intervals with a mean of 60 sec. The CS was presented for 10 sec. During this time, if the animal moved to the opposite side of the box, the white noise was silenced, no foot shock delivered, and an avoidance response was scored. Upon termination of the 10 sec tone, if the animal had not moved to the opposite side of the box, a foot-shock was administered for 2 sec. […] Failure to avoid or escape constituted a response failure and was scored accordingly. After reaching a criterion of 90% avoidances for a block of 20 trials, usually achieved with ˜100 CS-US pairings, each animal advanced to the drug-testing phase. Animals not meeting the criterion by 120 pairings were excluded from the study.
Pairings were presented just as during training and were scored in the same fashion. The test trial consisted of 100 CS-US pairings.

T1 sequence (Q13639 whole entry, species assumed): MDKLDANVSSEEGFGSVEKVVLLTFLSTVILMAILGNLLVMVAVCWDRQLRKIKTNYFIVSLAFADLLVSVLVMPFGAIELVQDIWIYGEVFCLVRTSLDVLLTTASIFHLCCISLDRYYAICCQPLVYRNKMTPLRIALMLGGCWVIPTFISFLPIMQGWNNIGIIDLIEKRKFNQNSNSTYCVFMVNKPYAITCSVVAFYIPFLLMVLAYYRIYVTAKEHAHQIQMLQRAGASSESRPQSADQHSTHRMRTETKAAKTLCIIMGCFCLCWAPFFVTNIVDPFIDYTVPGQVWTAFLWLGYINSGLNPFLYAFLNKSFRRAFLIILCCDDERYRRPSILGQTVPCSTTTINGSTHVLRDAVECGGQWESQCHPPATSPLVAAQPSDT
T2 sequence (P21918 whole entry): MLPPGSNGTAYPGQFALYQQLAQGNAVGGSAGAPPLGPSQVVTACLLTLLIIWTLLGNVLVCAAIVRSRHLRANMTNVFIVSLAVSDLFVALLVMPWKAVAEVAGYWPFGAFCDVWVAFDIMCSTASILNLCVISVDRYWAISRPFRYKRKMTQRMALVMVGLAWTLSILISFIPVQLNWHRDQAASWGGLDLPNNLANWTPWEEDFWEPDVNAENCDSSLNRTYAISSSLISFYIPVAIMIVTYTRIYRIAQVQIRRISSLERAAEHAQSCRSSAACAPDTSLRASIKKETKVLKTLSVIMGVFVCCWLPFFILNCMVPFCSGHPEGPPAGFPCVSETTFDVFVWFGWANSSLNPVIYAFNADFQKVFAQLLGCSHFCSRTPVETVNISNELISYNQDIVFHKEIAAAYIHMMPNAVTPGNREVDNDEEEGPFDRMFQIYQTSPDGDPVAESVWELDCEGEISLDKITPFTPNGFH

With COc1cc2c(cc1O)CN1CCc3cc(OC)c(O)cc3[C@H]1C2 [d-govadine] the “catalepsy (immobilized contact time)” value (rats [1]) was “No evidence of catalepsy”, the inhibition at 10 µM (5HT4; 10 μM, CHO cells) was 42% and the pKi (D5) was 7.87. For the same compound, the pKi (5HT2C) was 4.33, the “latent inhibition in acute d-AMPH-treated animals” value (rats [2]) was “restored LI” and the “5-HIAA in NAc” value (rats [3]) was “not the NAc”. For the same compound, the “DOPAC in NAc” value (rats [3]) was “no increase observed”, the “HVA in NAc” value (rats [3]) was “no increase observed” and the “dopamine level in NAc” value (rats [3]) was “not in the NAc”. For the same compound, the “5-HIAA in PFC” value (rats [3]) was “increased”, the “DOPAC in PFC” value (rats [3]) was “increased” and the “HVA in PFC” value (rats [3]) was “increased”. The “dopamine level in PFC” value (rats [3]) was “selectively increased”.
With COc1cc2c(cc1O)CN1CCc3cc(OC)c(O)cc3[C@@H]1C2 [l-govadine] the “time of peak cataleptic behavior post injection” value (rats [1]) was 15 min, the “catalepsy (immobilized contact time)” value (rats [1]) was “Catalepsy was observed” and the “antagonism of D2 autoreceptor-mediated decrease in tonic firing” value [4] was “antagonized”. The pKi (5HT4; receptor expressed in CHO cells) was 5.61, the pKi (5HT2C) was 4.34 and the “latent inhibition in acute d-AMPH-treated animals” value (rats [2]) was “restored LI”. For the same compound, the “DA efflux in NAc and mPFC compared to control” value (rats [3]; 1 mg/kg, Example 15) was “enhanced DA efflux”, the “5-HIAA in NAc” value (rats [3]) was “No increase” and the “DOPAC in NAc” value (rats [3]) was “increase”. For the same compound, the “HVA in NAc” value (rats [3]) was “increase”, the “dopamine level in NAc” value (rats [3]) was “increased” and the “5-HIAA in PFC” value (rats [3]) was “No increase”. The “DOPAC in PFC” value (rats [3]) was “increase”, the “HVA in PFC” value (rats [3]) was “increase” and the “dopamine level in PFC” value (rats [3]) was “increased”. For the same compound, the “suppression of conditioned avoidance responding (avoidances)” value (rats [5]) was “Suppression of conditioned avoidance responding was observed; also recorded: suppresses CAR”.
